# Data published in publication PMC4835042 (Bioorganic & medicinal chemistry letters, 2015).
# Assays:
# [1] = molecular target: T1, human mGlu5 (Homo sapiens, UniProt P41594); experiment: Calcium mobilization assay, mGlu5 PAM activity; assay type: cell-based; details: for mGlu5 activity in words: 4y vs 4k, 21a-c pyrazole unit modifications; for decrease in mGlu5 potency versus comparator analog: 4n vs 4k, 4x vs 4c, 4z vs unsubstituted -CH2-O- linker, 20 vs piperazinone core
# [2] = molecular target: T2, human mGlu3 (Homo sapiens, UniProt Q14832)
# T2 sequence (Q14832 23-879): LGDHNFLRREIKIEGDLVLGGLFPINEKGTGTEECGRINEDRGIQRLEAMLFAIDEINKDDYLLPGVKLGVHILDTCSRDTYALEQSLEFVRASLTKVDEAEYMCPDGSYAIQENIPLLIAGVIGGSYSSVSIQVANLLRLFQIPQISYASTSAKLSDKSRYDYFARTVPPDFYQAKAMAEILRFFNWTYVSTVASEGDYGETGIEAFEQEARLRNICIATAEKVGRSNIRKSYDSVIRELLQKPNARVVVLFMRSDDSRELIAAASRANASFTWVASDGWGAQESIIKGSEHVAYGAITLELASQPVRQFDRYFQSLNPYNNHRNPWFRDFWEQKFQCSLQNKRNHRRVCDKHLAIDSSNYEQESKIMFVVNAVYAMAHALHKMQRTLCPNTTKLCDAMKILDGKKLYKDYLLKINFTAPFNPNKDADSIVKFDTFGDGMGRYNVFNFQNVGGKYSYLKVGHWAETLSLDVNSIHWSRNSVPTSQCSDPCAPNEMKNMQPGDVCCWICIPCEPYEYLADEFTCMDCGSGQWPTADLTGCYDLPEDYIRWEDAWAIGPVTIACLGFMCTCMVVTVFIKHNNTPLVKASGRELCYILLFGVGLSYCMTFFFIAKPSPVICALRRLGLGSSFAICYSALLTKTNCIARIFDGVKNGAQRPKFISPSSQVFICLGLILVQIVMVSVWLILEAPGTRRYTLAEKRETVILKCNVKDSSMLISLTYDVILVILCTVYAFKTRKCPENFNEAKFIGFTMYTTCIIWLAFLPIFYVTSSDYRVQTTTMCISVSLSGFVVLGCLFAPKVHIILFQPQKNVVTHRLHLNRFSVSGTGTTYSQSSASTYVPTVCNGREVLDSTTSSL
# [3] = Predicted rat hepatic clearance from microsomal CLint; assay type: in vitro ADME; details: predicted hepatic clearance based on microsomal CLint data
# [4] = Toxicology rat MTD study; assay type: in vivo
# [5] = Terminal unbound brain concentration in the AHL study; details: rat, in vivo, po, 10 mg/kg
# [6] = AMES
# [7] = system: Na channels; experiment: Cardiovascular ion channel interaction, Na channel; details: read-out: Na channel IC50
# [8] = High content cytotoxicity assay
# [9] = system: Ca channels; experiment: Cardiovascular ion channel interaction, Ca channel; details: read-out: Ca channel IC50
# [10] = molecular target: T2, human mGlu3; experiment: cell-based
# [11] = molecular target: T1, human mGlu5; details: cited from earlier work
# T1 sequence (P41594 21-1212): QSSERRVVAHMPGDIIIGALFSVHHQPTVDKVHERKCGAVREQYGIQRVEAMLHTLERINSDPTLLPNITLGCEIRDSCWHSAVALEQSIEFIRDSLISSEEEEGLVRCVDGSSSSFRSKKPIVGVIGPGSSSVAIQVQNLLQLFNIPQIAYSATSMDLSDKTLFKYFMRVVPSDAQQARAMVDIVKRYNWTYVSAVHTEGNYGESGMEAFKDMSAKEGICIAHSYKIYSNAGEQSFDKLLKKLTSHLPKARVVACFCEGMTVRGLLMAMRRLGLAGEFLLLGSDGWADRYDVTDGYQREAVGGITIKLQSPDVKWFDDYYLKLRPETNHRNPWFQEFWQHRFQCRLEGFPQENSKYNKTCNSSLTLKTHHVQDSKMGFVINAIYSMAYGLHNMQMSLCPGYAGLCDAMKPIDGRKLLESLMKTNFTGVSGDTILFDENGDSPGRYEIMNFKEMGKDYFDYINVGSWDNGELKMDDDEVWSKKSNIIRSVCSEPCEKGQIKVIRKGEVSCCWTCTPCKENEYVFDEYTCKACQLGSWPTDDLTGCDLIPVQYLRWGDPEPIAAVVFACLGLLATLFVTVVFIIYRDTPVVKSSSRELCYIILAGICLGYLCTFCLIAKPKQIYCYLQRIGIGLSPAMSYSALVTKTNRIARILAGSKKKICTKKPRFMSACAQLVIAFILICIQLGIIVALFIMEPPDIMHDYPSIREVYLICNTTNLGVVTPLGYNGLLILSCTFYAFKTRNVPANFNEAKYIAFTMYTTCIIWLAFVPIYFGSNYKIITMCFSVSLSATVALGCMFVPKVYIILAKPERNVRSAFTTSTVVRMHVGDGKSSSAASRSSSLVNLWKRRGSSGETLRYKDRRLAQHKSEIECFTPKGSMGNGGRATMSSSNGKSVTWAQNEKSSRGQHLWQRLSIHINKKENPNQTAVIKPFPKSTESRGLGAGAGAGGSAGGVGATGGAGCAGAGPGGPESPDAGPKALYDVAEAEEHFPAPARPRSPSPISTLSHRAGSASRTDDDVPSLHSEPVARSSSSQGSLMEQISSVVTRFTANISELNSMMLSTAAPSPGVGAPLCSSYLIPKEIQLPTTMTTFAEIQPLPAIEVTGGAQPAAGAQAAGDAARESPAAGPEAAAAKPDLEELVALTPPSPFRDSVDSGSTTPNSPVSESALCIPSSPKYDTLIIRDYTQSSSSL
structure (smiles),measurement,setting,value
O=C1c2cc(OCc3ccccc3)nn2CCN1c1cc(F)ccn1 [4y],mGlu5 activity in words,[1],complete loss of activity
O=C1c2cc(COc3ccc(F)cc3)nn2CCN1c1ccc(F)cc1 [4q],extent of mGlu3 antagonism,[2],full antagonism
Cc1c(COc2ccccc2)nn2c1C(=O)N(c1ccc(F)cc1)CC2 [21b],mGlu5 activity in words,[1],remarkable loss of mGlu5 potency
O=C1c2cc(COc3ccccc3)nn2CCN1c1ccccn1 [4h],"increased mGlu5 potency over the 3- and 4- pyridyl isomers (4i,j)",[1],~ 3 fold
O=C1c2cc(COc3ccccc3)nn2CCN1c1ccc(F)cn1 [4k],Rat CLhep,[3],34.5 mL/min/kg
same,death of animals at the highest dose,"[4]; 600 mg/kg p.o., rat MTD study",2/6
same,"signs of CNS-related side-effects (compulsive behavior, pedaling movements of the forepaws, tremors)","[4]; rat MTD study 25, 75, 150, 300 and 600 mg/kg p.o.",starting at the lowest tested dose
same,concentration at 90 min,[5],313 nM
same,AMES result,[6],benign profile
same,IC50,[7],> 10 µM
same,high content cytotoxicity,[8],> 100 µM
same,IC50,[9],> 10 µM
O=C1c2cc(COc3ccccc3)nn2CCN1c1ccc(F)cc1 [4c],extent of mGlu3 antagonism,[2],full antagonism
same,pEC50 (±SEM),"[1]; HEK293 cells expressing human mGlu5, average of three or more determinations",7.19 ± 0.02
O=C1c2nc(COc3ccccc3)nn2CCN1c1ccc(F)cc1 [21a],mGlu5 activity in words,[1],remarkable loss of mGlu5 potency
O=C1c2cc(COc3cccc(F)c3)nn2CCN1c1ccc(F)cn1 [4w],EC50,[10],0.14 µM
Cc1ccc(N2CCn3nc(COc4ccccc4)cc3C2=O)nc1 [4l],functional selectivity for mGlu5 versus mGlu3 antagonist activity,[2],> 50 fold
same,EC50,[10],> 10 µM
CC(Oc1ccccc1)c1cc2n(n1)CCN(c1ccc(F)cc1)C2=O (stereo not drawn) [4z],decrease in mGlu5 potency versus comparator analog,[1],> 100 fold
O=C1c2cc(COc3ccccn3)nn2CCN1c1ccc(F)cc1 [4s],extent of mGlu3 antagonism,[2],full antagonism
O=C(c1ccc(F)cc1)N1CCc2oc(COc3ccccc3)nc2C1 [compound 1],glutamate CRC fold-shift (FS),[11],11
Cc1ccc(N2CCn3nc(COc4ccccc4)cc3C2=O)cc1 [4f],extent of mGlu3 antagonism,[2],full antagonism
O=C1c2cc(COc3ccccc3)nn2CCN1c1ncc(F)cn1 [4n],decrease in mGlu5 potency versus comparator analog,[1],~ 6 fold
O=C1c2cc(OCc3ccccc3)nn2CCN1c1ccc(F)cc1 [4x],Rat CLhep,[3],34.6 mL/min/kg
same,concentration at 90 min,[5],376 nM
same,decrease in mGlu5 potency versus comparator analog,[1],~ 2.5 fold
O=C1c2cc(COc3ccccc3)nn2CCCN1c1ccc(F)cc1 [compound 20],decrease in mGlu5 potency versus comparator analog,[1],~ 3 fold
